# Reference: PubChem BioAssay (NCI)
#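 96-well plates; 48 h exposure; 5 concentrations. Endpoints by linear interpolation between flanking doses. Not reached: highest tested concentration assigned. TGI: total growth inhibition.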 Where a SMILES comes first, the peptide text is derived from it. The star is where a group is joined. Boc = CC(C)(C)OC(=O)*; OBn = c1ccc(CO*)cc1
# Legend:
# Assay in all cases: growth of human tumour cells (NCI), 48 h
# UACC-257 melanoma = system: UACC-257 melanoma
# CCRF-CEM leukemia = system: CCRF-CEM leukemia
# MCF7 breast = system: MCF7 breast
# IGROV1 ovarian = system: IGROV1 ovarian
# HOP-92 NSCLC = system: HOP-92 NSCLC
# SNB-75 CNS = system: SNB-75 CNS
# LOX IMVI melanoma = system: LOX IMVI melanoma
# MALME-3M melanoma = system: MALME-3M melanoma
# OVCAR-4 ovarian = system: OVCAR-4 ovarian
# OVCAR-3 ovarian = system: OVCAR-3 ovarian
# HCT-15 colon = system: HCT-15 colon
# M14 melanoma = system: M14 melanoma
# CAKI-1 renal = system: CAKI-1 renal
# OVCAR-5 ovarian = system: OVCAR-5 ovarian
# SW-620 colon = system: SW-620 colon
# K-562 leukemia = system: K-562 leukemia
# HL-60(TB) leukemia = system: HL-60(TB) leukemia
# RXF 393 renal = system: RXF 393 renal
Compound,TGI (UACC-257 melanoma) [µM],TGI (CCRF-CEM leukemia) [µM],TGI (MCF7 breast) [µM],TGI (IGROV1 ovarian) [µM],TGI (HOP-92 NSCLC) [µM],TGI (SNB-75 CNS) [µM],TGI (LOX IMVI melanoma) [µM],TGI (MALME-3M melanoma) [µM],TGI (OVCAR-4 ovarian) [µM],TGI (OVCAR-3 ovarian) [µM],TGI (HCT-15 colon) [µM],TGI (M14 melanoma) [µM],TGI (CAKI-1 renal) [µM],TGI (OVCAR-5 ovarian) [µM],TGI (SW-620 colon) [µM],TGI (K-562 leukemia) [µM],TGI (HL-60(TB) leukemia) [µM],TGI (RXF 393 renal) [µM]
Cc1oc2c(c1C)S(=O)(=O)C(C#N)C(c1ccccc1)N2 (stereo unspecified),> 100,48.2,> 100,> 100,> 100,> 100,> 100,> 100,> 100,> 100,> 100,> 100,> 100,> 100,> 100,–,–,–
CC(C)C(NC(=O)C(Cc1ccccc1)NC(=O)OC(C)(C)C)C(=O)NCC(=O)OCc1ccccc1 (stereo not drawn) (Boc-Phe-Val-Gly-OBn; configuration not given here),41.9,43,–,27.8,–,36,30.2,37.5,58.8,27.9,26.7,36.5,33.7,28.7,29.1,23.9,34.4,–
CNc1c2cccc(C)c2nc2c(C(=O)NCCN(C)C)cccc12,1.24,–,0.96,10.6,0.522,0.592,0.391,0.692,0.114,1.05,0.634,0.887,0.23,1.1,0.424,> 100,–,0.413
CN(C)c1ccc(/C=N\NC(=O)c2ccccc2Nc2ccccc2C(=O)N/N=C/c2ccc(N(C)C)cc2)cc1,> 100,> 100,> 100,> 100,> 100,> 100,> 100,98,> 100,> 100,> 100,95.9,> 100,> 100,> 100,> 100,–,> 100
Cc1oc2c(c1C)S(=O)(=O)C(C#N)=C(c1ccccc1)N2,> 100,–,> 100,> 100,> 100,> 100,> 100,> 100,> 100,> 100,> 100,> 100,> 100,> 100,> 100,> 100,–,–
CC(C)(C)O/C=C1/C(=O)OC2C[C@@H](O[Si](C)(C)C(C)(C)C)CC12 (stereo partly specified),> 100,88.4,> 100,> 100,> 100,93.3,> 100,> 100,> 100,> 100,> 100,> 100,> 100,> 100,> 100,–,–,73.3
O=c1[nH]n(Cc2ccccc2Cl)c2ccc([N+](=O)[O-])cc12,> 100,> 100,–,> 100,52,> 100,> 100,> 100,> 100,> 100,> 100,> 100,> 100,> 100,> 100,> 100,> 100,57.9
